Reference: patent publication US20230142739A1, “PROTEIN-PROTEIN INTERACTION STABILIZERS” (The Regents of the University of California, priority 2020, published 2023)

Legend:
Assay type in all cases: binding
CFTRpS753/14-3-3 = target: T1, CFTRpS753/14-3-3 (Homo sapiens, UniProt P61981); assay: Selectivity screening FA, CFTRpS753 peptide; conditions: 100 μM fragment
T1 construct: the full length 14-3-3γ was dialysis against 25 mM HEPES pH 7.5; made in house; host or cells: E. coli BL21(DE3), pPROEX HTb
T1 sequence (P13569 747-774 partner limits assumed, one chain of several): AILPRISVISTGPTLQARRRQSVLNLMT
Method: (§1) Selectivity screening of covalent fragments. Drugging the hub protein 14-3-3 raises the challenge of selectivity.
(§2) This was investigated by comparing the effect of 13, 27 and 28 on 14-3-3 interaction partners with a leucine (Abl1pT735), isoleucine (p65pS45), or valine (CFTRpS753) at the +1 position.
(§3) Fluorescence Anisotropy (FA) Assays. […] All FA assays were measured in FA buffer (10 mM HEPES pH 7.4, 150 mM NaCl, 0.1% Tween20, 1% BSA) in Corning 384 well plates (black, round bottom, low binding). Plates were incubated overnight prior to anisotropy measurements with the Tecan Infinite 500 plate reader (λexcitation=485 nm, λemission=535 nm).

Abl1pT735/14-3-3 = target: T2, Abl1pT735/14-3-3 (Homo sapiens, UniProt P61981); assay: Selectivity screening FA, Abl1pT735 peptide; conditions: 100 μM fragment
T2 construct: the full length 14-3-3γ was dialysis against 25 mM HEPES pH 7.5; made in house; host or cells: E. coli BL21(DE3), pPROEX HTb
Method: as §1, §2, §3

14-3-3/Pin1_72 complex = target: T3, 14-3-3/Pin1_72 complex (Homo sapiens, UniProt P61981); assay: Cooperativity analysis, 14-3-3 titrations at varied constant fragment concentration
T3 construct: the full length 14-3-3γ was dialysis against 25 mM HEPES pH 7.5; made in house; host or cells: E. coli BL21(DE3), pPROEX HTb
Excerpt: Cooperativity in ternary complex formation. In contrast to PPI inhibition, where affinity to one of the protein pockets is the driving force for drug development, design of molecular glues is driven by cooperative ternary complex formation. Both CC50 and SF values are concentration dependent values and might differ based on assay design. […] Cooperative complex formation is often accompanied by structural changes of the interface of a complex which translates to increased stability of the ternary com-plex. In order to assess cooperativity of the ternary complex, fragments 13, 23, 27 and 28 were selected for cooper-activity analysis. The α-factor of the fragments were determined using 14-3-3 titrations in the presence of varied, but constant concentration of fragment in a dose-dependent manner. […] Further, the interval of change in stabilization further describes the systems cooperative behaviour.
However, at higher concentration regimes significant assay interference was observed, probably due to compound aggregation. Fragments 23, 27 and 28 all reached saturation or approached saturation enabling accurate determination of α-factor. […] KD remains constant also at higher concentrations of FC-A, indicating non-specific effects.

[1] = target: T4, Raptor/14-3-3γ binary complex (Homo sapiens, UniProt P61981); assay: Selectivity screening FA, Raptor peptide; conditions: 100 μM fragment
T4 construct: the full length 14-3-3γ was dialysis against 25 mM HEPES pH 7.5; made in house; host or cells: E. coli BL21(DE3), pPROEX HTb
Excerpt: (§4) Selectivity screening of covalent fragments. Drugging the hub protein 14-3-3 raises the challenge of selectivity. We hypothesized that the high level of cooperative behavior for 14-3-3/Pin1_72/28 complex is a function of the unique functionality and topology of the interface, specifically the +1 and +3 amino acid of Pin1_72 with the covalent fragment. We further rationalized that this cooperativity would likely translate to high selectivity. To test this hypothesis, fragments 13, 27 and 28 were screened at a single fragment concentration (100 μM) against a panel of 13 peptides as diverse representatives of 14-3-3 client proteins, differing in size and hydrophobicity of the +1 amino acid (FIG. 22A).
Following the importance of the tryptophan for complex stabilization of Pin1_72/14-3-3γ with the benzaldehydes, the influence of phenylalanine (AS160) and tyrosine (Raptor) were investigated (FIGS. 22A-22B). […] Unlike Pin1_72, the C-terminus of AS160 engages Phe+1 in intramolecular hydrophobic contacts with Pro+4 and Pro+5. The +1 phenylalanine likely cannot rearrange to allow fragment binding.
(§5) Fluorescence Anisotropy (FA) Assays.

TBC1D237 peptide/14-3-3 = target: T5, TBC1D237 peptide/14-3-3 (Homo sapiens, UniProt P61981); assay: Selectivity screening FA, TBC1D237 peptide; conditions: 100 μM fragment
T5 construct: the full length 14-3-3γ was dialysis against 25 mM HEPES pH 7.5; made in house; host or cells: E. coli BL21(DE3), pPROEX HTb
Excerpt: as §4, §5

14-3-3/ERα complex = target: T6, 14-3-3/ERα complex (Homo sapiens, UniProt P61981); assay: Selectivity screening FA, ERα peptide; conditions: 100 μM fragment
T6 construct: the full length 14-3-3γ was dialysis against 25 mM HEPES pH 7.5; made in house; host or cells: E. coli BL21(DE3), pPROEX HTb
T6 sequence (P61981 1-247): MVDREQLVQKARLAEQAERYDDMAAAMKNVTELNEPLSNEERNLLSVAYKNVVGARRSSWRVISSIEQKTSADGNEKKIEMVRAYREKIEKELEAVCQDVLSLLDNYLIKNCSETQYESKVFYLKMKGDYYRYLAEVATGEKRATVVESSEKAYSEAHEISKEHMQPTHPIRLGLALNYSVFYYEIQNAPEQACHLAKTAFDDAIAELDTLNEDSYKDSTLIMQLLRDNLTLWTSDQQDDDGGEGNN
Excerpt: as §4, §5

p65pS45/14-3-3 = target: T7, p65pS45/14-3-3 (Homo sapiens, UniProt P61981); assay: Selectivity screening FA, p65pS45 peptide; conditions: 100 μM fragment
T7 construct: the full length 14-3-3γ was dialysis against 25 mM HEPES pH 7.5; made in house; host or cells: E. coli BL21(DE3), pPROEX HTb
T7 sequence (as listed by the source partner, one chain of several): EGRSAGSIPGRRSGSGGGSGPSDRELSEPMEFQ
Method: as §1, §2, §3

Mypt1_472 peptide/14-3-3 = target: T8, Mypt1_472 peptide/14-3-3 (Homo sapiens, UniProt P61981); assay: Selectivity screening FA, Mypt1_472 peptide; conditions: 100 μM fragment
T8 construct: the full length 14-3-3γ was dialysis against 25 mM HEPES pH 7.5; made in house; host or cells: E. coli BL21(DE3), pPROEX HTb
Excerpt: as §4, §5

ERRγ_179 peptide/14-3-3 = target: T9, ERRγ_179 peptide/14-3-3 (Homo sapiens, UniProt P61981); assay: Selectivity screening FA, ERRγ_179 peptide; conditions: 100 μM fragment
T9 construct: the full length 14-3-3γ was dialysis against 25 mM HEPES pH 7.5; made in house; host or cells: E. coli BL21(DE3), pPROEX HTb
Excerpt: as §4, §5

B-Raf_729 peptide/14-3-3 = target: T10, B-Raf_729 peptide/14-3-3 (Homo sapiens, UniProt P61981); assay: Selectivity screening FA, B-Raf_729 peptide; conditions: 100 μM fragment
T10 construct: the full length 14-3-3γ was dialysis against 25 mM HEPES pH 7.5; made in house; host or cells: E. coli BL21(DE3), pPROEX HTb
Excerpt: as §4, §5

C-Raf peptide/14-3-3 = target: T11, C-Raf peptide/14-3-3 (Homo sapiens, UniProt P61981); assay: Selectivity screening FA, C-Raf peptide; conditions: 100 μM fragment
T11 construct: the full length 14-3-3γ was dialysis against 25 mM HEPES pH 7.5; made in house; host or cells: E. coli BL21(DE3), pPROEX HTb
Excerpt: as §4, §5

14-3-3/p65 = target: T12, 14-3-3/p65 (Homo sapiens, UniProt P61981); assay: Cooperativity analysis of the 14-3-3/p65/28 complex; conditions: 1 mM compound; saturation not achieved
T12 construct: the full length 14-3-3γ was dialysis against 25 mM HEPES pH 7.5; made in house; host or cells: E. coli BL21(DE3), pPROEX HTb
T12 sequence (as listed by the source partner, one chain of several): as above
Method: Finally, we performed a cooperativity analysis of the 14-3-3/p65/28 complex to investigate how these structural observations translate to cooperativity. For the 14-3-3/p65/28 complex, saturation of the system was not achieved at concentration ≤1 mM with SF1 mM=37. […] The cooperative interactions within the 14-3-3/Pin1/28 complex are thus significant driving factors for the selective stabilization.

Pin1_72/14-3-3γ = target: T13, Pin1_72/14-3-3γ (Homo sapiens, UniProt P61981+Q13526); assay: FA protein titrations in presence of 100 μM fragment, 13 representative 14-3-3/peptide interactions; conditions: 14-3-3γ titrations
T13 construct: the full length 14-3-3γ was dialysis against 25 mM HEPES pH 7.5; made in house; host or cells: E. coli BL21(DE3), pPROEX HTb
Method: FIGS. 22A-22F. […] FIG. 22A: Radar plot of the SFs determined by FA protein titrations in presence of 100 μM fragment. […] Right: close-up. FIG. 22B: The SF values determined with 14-3-3γ titrations in presence of 100 μM 13, 27 or 28 in FA assays (n=2). FIG. 22C: Structural overlay of the known 14-3-3 binding epitopes used in this study. FIG. 22D: Overlay of the binding pose of 13, 27 and 28 (line representation) with the AS160 binding epitope (PDB: 7NIX). FIG. 22E: Overlay of crystal structures of 13 (2Fo-Fc map at 1 as mesh) binding to the p65_45 (violet sticks, carton)/14-3-3γ complex (PDB: 7NQP) and the CFTR (cyan sticks, cartoon)/14-3-3 complex (PDB: 5D3F, FC-A hidden for clarity). Hydrophobic contacts between 13 and Ile+1 of p65 and Val+1 of CFTR are indicated by transparent spheres.

O=Cc1ccc(-n2ccnc2-c2cc(Br)ccc2F)cc1Br [compound 27, 2-bromo-4-(2-(5-bromo-2-fluorophenyl)-1H-imidazol-1-yl)benzaldehyde]
SF, CFTR (CFTRpS753/14-3-3): 12.5 | stabilizing activity, CFTRpS753 (CFTRpS753/14-3-3): some stabilizing activity | stabilizing activity, Abl1pT735 (Abl1pT735/14-3-3): some stabilizing activity | cooperativity factor (α-factor) (14-3-3/Pin1_72 complex): approximately 60 | stabilization of the Raptor/14-3-3γ binary complex [1]: 9.5 fold | stabilization, TBC1D237 (TBC1D237 peptide/14-3-3): no significant stabilization | stabilization, ERα (14-3-3/ERα complex): not responsive to fragment stabilization | stabilizing activity, p65pS45 (p65pS45/14-3-3): some stabilizing activity | stabilization, Mypt1_472 (Mypt1_472 peptide/14-3-3): no significant stabilization | stabilization, ERRγ_179 (ERRγ_179 peptide/14-3-3): no significant stabilization | stabilization, B-Raf_729 (B-Raf_729 peptide/14-3-3): no significant stabilization | stabilization, C-Raf (C-Raf peptide/14-3-3): abolishes any stabilizing effect

O=Cc1ccc(-n2ccnc2-c2ccc(F)cc2F)cc1Br [compound 28, 2-bromo-4-(2-(2,4-difluorophenyl)-1H-imidazol-1-yl)benzaldehyde]
stabilizing activity, CFTRpS753 (CFTRpS753/14-3-3): no significant complex stabilization | SF1 mM (14-3-3/p65): 37 | selectivity of stabilization among 13 14-3-3/peptide interactions (Pin1_72/14-3-3γ): selective stabilization of the 14-3-3/Pin1_72 complex | stabilizing activity, Abl1pT735 (Abl1pT735/14-3-3): no significant complex stabilization | concentration necessary to induce a 2-fold increase in PPI stabilization (14-3-3/Pin1_72 complex): 1 µM | cooperativity factor (α-factor) (14-3-3/Pin1_72 complex): 270 | stabilization of the Pin1/14-3-3 complex (14-3-3/Pin1_72 complex): 270 fold | stabilization, TBC1D237 (TBC1D237 peptide/14-3-3): no significant stabilization | stabilization, ERα (14-3-3/ERα complex): not responsive to fragment stabilization | stabilizing activity, p65pS45 (p65pS45/14-3-3): no significant complex stabilization | stabilization, Mypt1_472 (Mypt1_472 peptide/14-3-3): no significant stabilization | stabilization, ERRγ_179 (ERRγ_179 peptide/14-3-3): no significant stabilization | stabilization, B-Raf_729 (B-Raf_729 peptide/14-3-3): no significant stabilization | stabilization, C-Raf (C-Raf peptide/14-3-3): abolishes any stabilizing effect
